# Tests used:
# [1] = test system: PdxR; assay: Substrate specificity of PdxR (DCIP reduction, A600); format: biochemical, S. meliloti
# Description: Substrate specificity of PdxR was examined using the finally purified enzyme solution prepared in Example 2[C] (1). The standard enzyme assay was performed as follows: the basal reaction mixture (total volume 150 μl) consisting of 33 mM potassium phosphate buffer (pH 7.0), 2.4 μg proteins, 0.091 mM DCIP, and water up to a total volume of 144 μl, and was incubated for 1 minute at room temperature (21° C.). […]. The decrease in A600 was monitored at 21° C. for 1 minute for EN4P dehydrogenase read with a UV-VIS recording spectrophotometer UV 2200. One unit of the enzyme activity was defined as the amount of enzyme reduced 1 nmol of DCIP for 1 minute under the action of EN4P dehydrogenase in the assay system described above.
# [2] = test system: S. meliloti 16C18; assay: Growth of vitamin B6-deficient mutant on supplemented EMM plate; format: cell-based, Sinorhizobium meliloti
# Description: These colonies were streaked on LBMC plates containing same antibiotics and incubated for 2 days at 30° C. The cells grown on the plates were inoculated on vitamin B6 assay plates (Table 1) containing Saccharomyces carlsbergensis ATCC 9080 as a vitamin B6 indicator strain. After incubation for 2 days at 30° C., one colony that had no halo of Saccharomyces carlsbergensis ATCC 9080 was obtained. The strain was named as S. meliloti 16C18. […] Further, S. meliloti 16C18 grew on EMM plate which was supplemented with 4 mg/L of 4-HT or 400 μg/L of PN.
# [3] = test system: pdxR gene product in CFE of S. meliloti 16C18/pVK-pdxR; assay: EN4P dehydrogenase activity with an electron acceptor in cell-free extract (color change); format: biochemical; conditions: 21° C.
# Description: (§1) The frozen cells were thawed slowly, suspended with 200 ml of 10 mM Tris-HCl buffer, pH 7.5. The suspension was passed through a French pressure cell at 800 kg/cm^2. The homogenate was centrifuged to remove the cell debris at 37,000×g for 90 minutes and then each 165 ml of supernatants was used as cell-free extract (CFE) and the protein contents in S. meliloti 16C18 and S. meliloti 16C18/pVK-pdxR were 5,030 and 5,042 mg, respectively.
# (§2) EN4P dehydrogenase activity with NAD^+ or NADP^+ in CFE was determined by the formation of NADH or NADPH, which absorbs at 340 nm. Reaction mixture (150 μl) for assaying EN4P dehydrogenase activity contained 33 mM potassium phosphate buffer, pH 7.0, 2.3 mM EN4P, 1 mM NAD^+ or NADP^+, and CFE prepared from cells of S. meliloti 16C18 or S. meliloti 16C18/pVK-pdxR (each 0.16 mg protein). The increase of A340 was monitored at room temperature (21° C.) for 1 min in a UV-VIS recording spectrophotometer UV 2200 (Shimadzu Instruments, Inc., Kyoto, Japan), but the increase of A340 was not observed in enzyme reaction mixtures with any CFEs. Therefore, the both CFEs were determined to have no NAD^+ or NADP^+ dependent EN4P dehydrogenase activity. EN4P dehydrogenase activity with an electron acceptor in CFE was examined at room temperature (21° C.) by color change due to formation of reduced form from oxidized form of an electron acceptor. Reaction mixture (150 μl) contained 33 mM potassium phosphate buffer, pH 7.0, 2.3 mM EN4P, CFE (0.16 mg protein), and an electron acceptor such as 2,6-dichlorophenolindophenol (0.091 mM) (Wako Pure chemical Industries, Ltd., Osaka, Japan) (referred to as DCIP hereinafter) or ferricyanide (1.3 mM) (Wako Pure chemical Industries, Ltd., Osaka, Japan). […]
# [4] = test system: CFE of S. meliloti 16C18; assay: as above; format: biochemical; conditions: 21° C.
# Description: as §1, §2
# [5] = test system: purified PdxR treated with ammonium sulfate; assay: Effect of flavin on discoloration of DCIP in reaction mixture; format: biochemical, S. meliloti
# Description: To characterize a flavin binding to PdxR protein, ammonium sulfate fractionation was applied in the finally purified enzyme solution prepared in Example 2[C] (1) according to a method of Cammack [Biochem. J. 109:45-46 (1968)]. The enzyme solution (1 ml, containing 4.74 mg proteins) was dialyzed overnight against 1 liter of 80% (w/v) ammonium sulfate solution and its resultant precipitate in a dialysis membrane was collected by centrifugation at 34,800×g for 30 min, dissolved in 0.5 ml of 10 mM Tris-HCl, pH 7.5, and dialyzed overnight against 4 liters of the same buffer. The volume of dialyzed enzyme solution was brought to 1 ml with 10 mM Tris-HCl, pH 7.5.
# The degree of discoloration was judged at 3 minutes.
# [6] = test system: EN4P dehydrogenase in CFE of S. meliloti 16C18 or S. meliloti 16C18/pVK-pdxR; assay: EN4P dehydrogenase activity with NAD+ or NADP+ in CFE (increase of A340); format: biochemical; conditions: 1 mM coenzyme, 2.3 mM EN4P, any CFE, 21° C., 1 min
# Description: as §2
# [7] = test system: EN4P dehydrogenase; assay: Cytochrome c as electron acceptor of EN4P dehydrogenase (absorption spectra 400-600 nm); format: biochemical, S. meliloti; conditions: 80 μM oxidized cytochrome c, 2.3 mM EN4P, CFE, 21° C., 2-20 min
# Description: Furthermore, possibility of cytochrome c instead of DCIP or ferricyanide in above-mentioned enzyme reaction system of EN4P dehydrogenase with an electron acceptor was examined by measuring change of absorption spectra in 400-600 nm spectral regions due to formation of reduced form from oxidized form of cytochrome c at room temperature (21° C.). Reaction mixture (150 μl) contained 33 mM potassium phosphate buffer, pH 7.0, 2.3 mM EN4P, 80 μM oxidized form of cytochrome c (from equine heart, Sigma Chemical Co.) as an electron acceptor, and CPE (0.16 mg protein). Absorption spectra of the reaction mixture of zero time and after 2, 5, 10, 15 and 20 min at room temperature (21° C.) were monitored with a UV-VIS recording spectrophotometer UV 2200. The absorption spectrum of zero time had only a broad peak at 525 nm, but spectra after 2 min appeared a new peak at 550 nm corresponding to reduced form of cytochrome c, and the absorption in the 550 nm region after 5, 10, 15 and 20 min was increased with time course.
# [8] = substrate 2.28 mM, 0.091 mM DCIP, pH 7.0, 21° C.
# Sequence of EN4P dehydrogenase (as listed by the source): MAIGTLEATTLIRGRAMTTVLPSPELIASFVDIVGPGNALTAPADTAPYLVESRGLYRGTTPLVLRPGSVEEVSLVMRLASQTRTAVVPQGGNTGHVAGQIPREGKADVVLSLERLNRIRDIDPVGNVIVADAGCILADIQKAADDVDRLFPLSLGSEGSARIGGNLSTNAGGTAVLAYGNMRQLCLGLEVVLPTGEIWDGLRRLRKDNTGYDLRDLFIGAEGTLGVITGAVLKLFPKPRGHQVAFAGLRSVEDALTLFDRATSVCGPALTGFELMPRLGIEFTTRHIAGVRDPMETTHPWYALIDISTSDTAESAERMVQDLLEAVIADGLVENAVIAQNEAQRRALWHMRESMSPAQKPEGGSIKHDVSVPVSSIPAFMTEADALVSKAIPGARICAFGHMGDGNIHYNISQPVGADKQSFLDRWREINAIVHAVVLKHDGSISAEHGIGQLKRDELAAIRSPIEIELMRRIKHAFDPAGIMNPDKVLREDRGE
molecule,measurement,setting,value
"CC(O)C(=O)O (racemic) [D,L-lactate]",Activity (nmol/min/mg protein),[1]; pH 7,0 nmol/min/mg protein
"N[C@H](C(=O)O)[C@H](O)CO [4-HT, 4-hydroxy-L-threonine]",Growth of S. meliloti 16C18 on supplemented EMM plate,[2]; EMM plate supplemented with 4 mg/L of 4-HT,grew
O=C(O)[C@H](O)CO [D(+) glyceric acid],Activity (nmol/min/mg protein),[1]; [8],0 nmol/min/mg protein
"O=C(O)CC(C(=O)O)C(O)C(=O)O [D,L-isocitrate]",Activity (nmol/min/mg protein),[1]; [8],0 nmol/min/mg protein
O=C(O)[C@H](O)COP(=O)(O)O [D-(−)-glyceric acid 3-phosphate],Activity (nmol/min/mg protein),[1]; [8],0 nmol/min/mg protein
O=C(O)[C@H](O)[C@H](O)CO [D-erythronate],Activity (nmol/min/mg protein),[1]; pH 7,0 nmol/min/mg protein
"O=C1C=CC(=Nc2cc(Cl)c(O)c(Cl)c2)C=C1 [DCIP, 2,6-dichlorophenolindophenol]",Color change of electron acceptor in reaction mixture,[3],No change
same,Color change of electron acceptor in reaction mixture,"[4]; CFE of S. meliloti 16C18, + EN4P (2.3 mM)",No change
same,Color change of electron acceptor in reaction mixture,"[4]; CFE of S. meliloti 16C18, − EN4P",No change
"O=C(O)[C@H](O)[C@H](O)COP(=O)(O)O [EN4P, D-erythronate 4-phosphate]",Oxidation by PdxR,"[1]; substrate 2.28 mM, 0.091 mM DCIP",oxidized
same,Activity (nmol/min/mg protein),[1]; [8],946 nmol/min/mg protein
"Cc1cc2nc3c(=O)[nH]c(=O)nc-3n(C[C@H](O)[C@H](O)[C@H](O)COP(=O)(O)OP(=O)(O)OC[C@H]3O[C@@H](n4cnc5c(N)ncnc54)[C@H](O)[C@@H]3O)c2cc1C [FAD, flavin adenine dinucleotide]",Flavin concentration at which discoloration of DCIP occurred,"[5]; judged at 3 minutes, 21° C.",greater than 0.014 μM
"Cc1cc2nc3c(=O)[nH]c(=O)nc-3n(C[C@H](O)[C@H](O)[C@H](O)COP(=O)(O)O)c2cc1C [FMN, flavin mononucleotide]",Discoloration of DCIP,[5]; any FMN concentrations,did not occur
C[C@H](O)C(=O)O [L-(+)-lactic acid],Activity (nmol/min/mg protein),[1]; [8],0 nmol/min/mg protein
O=C(O)C[C@H](O)C(=O)O [L-malic acid],Activity (nmol/min/mg protein),[1]; [8],0 nmol/min/mg protein
NC(=O)c1ccc[n+]([C@@H]2O[C@H](COP(=O)([O-])OP(=O)(O)OC[C@H]3O[C@@H](n4cnc5c(N)ncnc54)[C@H](OP(=O)(O)O)[C@@H]3O)[C@@H](O)[C@H]2O)c1 [NADP^+],Increase of A340 (formation of NADH or NADPH),[6],not observed
NC(=O)c1ccc[n+]([C@@H]2O[C@H](COP(=O)([O-])OP(=O)(O)OC[C@H]3O[C@@H](n4cnc5c(N)ncnc54)[C@H](O)[C@@H]3O)[C@@H](O)[C@H]2O)c1 [NAD^+],Increase of A340 (formation of NADH or NADPH),[6],not observed
"Cc1ncc(CO)c(CO)c1O [PN, pyridoxol]",Growth of S. meliloti 16C18 on supplemented EMM plate,[2]; EMM plate supplemented with 400 μg/L of PN,grew
O=C(O)CO [glycolate],Activity (nmol/min/mg protein),[1]; [8],0 nmol/min/mg protein
O=C(O)COP(=O)(O)O [glycolic acid 2-phosphate],Activity (nmol/min/mg protein),[1]; [8],0 nmol/min/mg protein
O=CC(=O)O [glyoxylate],Activity (nmol/min/mg protein),[1]; [8],0 nmol/min/mg protein
cytochrome c,Function as electron acceptor (reduced form peak at 550 nm),[7],works as electron acceptor

# Reference: patent publication US7432089B2, “DNA encoding favin-adenine-dinucleotide-dependent-D-erythronate-4-phosphate-de-hydrogenase, pdxR, and microbial production of vitamin B6” (DSM IP Assets B.V., priority 2002, dated 2008)
